# System: IL-1α
# Experiment: IL-1α secretion by UV-B irradiated excised human skin explants (ELISA), marker for antiinflammatory activity
# Format: cell-based
# Conditions: applied before and after UV-B irradiation, * significant p < 0.05
# Procedure: The effect of phytosphingosine was assessed ex vivo on excised human skin explants.
# The explant was exposed to UV-B rays as a physical, proinflammatory stress.
# The antiinflammatory effect of phytosphingosine was evaluated by measurement of the amount of the cytokine IL-1α secreted in the incubation medium of the skin explants.
# • Preparation of the human skin explants obtained after plastic surgery using standard techniques. • Application of the test product: • resp. 0% (Placebo), 0.2 and 0.5% phytosphingosine (PS) in Propylene glycol:Ethanol (60:40). • Dexamethasone (1 μM) was used as the reference product. • The products were applied before and after irradiation (˜2 mg/cm^2) • IL-1α secretion was measured in the incubation medium of the skin explants, using a standard ELISA technique. • Each experimental condition was performed in triplicate.
SMILES,"IL-1α secreted in the incubation medium (Dexamethasone 1 μM, before UV-B 48, after UV-B 205, placebo 165)","IL-1α secreted in the incubation medium (0.2% PS in Propylene glycol:Ethanol (60:40), ~2 mg/cm^2, placebo 165)","IL-1α secreted in the incubation medium (0.5% PS in Propylene glycol:Ethanol (60:40), ~2 mg/cm^2, placebo 165)"
"C[C@@H]1C[C@H]2[C@@H]3CCC4=CC(=O)C=C[C@]4(C)[C@@]3(F)[C@@H](O)C[C@]2(C)[C@@]1(O)C(=O)CO [Dexamethasone, reference compound]",116* pg per ml,,
"CCCCCCCCCCCCCCC(O)C(O)C(N)CO (stereo not drawn) [PS, 2-amino-octadecane-1,3,4-triol]",,82* pg per ml,92* pg per ml

# Source: patent publication US7597899B2, “Compositions comprising a combination of a free sphingoid base and ceramide and uses thereof” (Cosmoferm B.V., priority 1997, dated 2009)
